In brackets after ≈: the same amount, converted by molar mass. Entries after “also recorded” stand apart in the source; their conditions may differ. Like-named read-outs stand apart in the source and are kept apart here. Non-standard residues stand in square brackets, D forms with d. Residues, ends and D or L forms follow the SMILES beside them. Ala(azulen-1-yl) = N[C@@H](Cc1ccc2cccccc1-2)C(=O)O

For series [1], the system named is P. aeruginosa PA-01. In kind it is cell-based. Conditions: PA-01, 18 h. The procedure:
(§1) Bacteria were streaked from frozen glycerol stocks onto LB agar plates (E. coli D31, S. aureus ATCC 35556, P. aeruginosa PA-01, A. baumannii ATCC 19609). The plates were incubated at 37 °C for ~18 h to allow growth. An individual colony from each plate was transferred into individual sterile tubes containing 3 mL of Muller Hinton (MH) broth and subsequently incubated for 18 h with shaking (225 rpm) at 37 °C. An aliquot of this culture was then diluted with fresh MH broth (1:250) and further incubated with shaking (225 rpm) at 37 °C until an OD600 of 0.2–0.4 was reached. This mid-log culture was then diluted to 5 × 10^5 CFU/mL in fresh MH broth. Serially diluted peptides were dispensed in a 96-well plate such that the final concentration in each well would be in the range of 15 µM to 0.234 µM. Then, 90 µL of the freshly diluted culture was transferred to the 96-well plate, yielding a final volume of 100 µL. The 96-well plate was covered and transferred to a humidified incubator at 37 °C for 18 h. The growth and inhibition of bacterial growth were determined by measuring OD600 directly in the plate and comparing to an untreated control. The Minimum Bactericidal Concentration (MBC) was determined by transferring 1 µL of culture from each well of the MIC plate onto fresh LB agar plates and allowed to incubate overnight at 37 °C.

Series [2] concerns S. aureus ATCC 35556. In kind it is cell-based. Conditions: ATCC 35556, 18 h. The procedure:
as §1

The test system of series [3] is A. baumannii ATCC 19609. The class given is cell-based. As to conditions: ATCC 19609, 18 h. The procedure:
as §1

Another series relates to trypsin. The series is described as follows: trypsin (50 µL of 0.001 mg/mL solution) in buffer (50 mM sodium phosphate, 100 mM NaCl, pH 7.0). As to conditions: room temperature, up to 4 hours.
Series [4] deals with S. aureus ATCC 35556. As to conditions: previously reported activity of the parent peptide; ref [30]; cited from earlier work. The text has this:
Table 2 Bacterial growth inhibition/killing concentration (µM). | column: S. aureus

In the next series the test system is E. coli D31. Conditions: previously reported activity of the parent peptide; ref [30]; cited from earlier work. The text has this:
Table 2 Bacterial growth inhibition/killing concentration (µM). | column: E. coli

For series [5], the system named is P. aeruginosa PA-01. Conditions: previously reported activity of the parent peptide; ref [30]; cited from earlier work. From the text: Table 2 Bacterial growth inhibition/killing concentration (µM). | column: P. aeruginosa
Series [6] relates to A. baumannii ATCC 19609. As to conditions: previously reported activity of the parent peptide; ref [30]; cited from earlier work. The text has this: Table 2 Bacterial growth inhibition/killing concentration (µM). | column: A. baumannii

As for `CC[C@H](C)[C@H](NC(=O)[C@H](Cc1c[nH]c2ccccc12)NC(=O)[C@@H](NC(=O)[C@H](Cc1ccc2cccccc1-2)NC(=O)[C@@H]1CCCN1C(=O)[C@@H](NC(=O)[C@H](C)N)[C@@H](C)CC)[C@@H](C)CC)C(=O)N[C@@H](Cc1c[nH]c2ccccc12)C(=O)N[C@@H](CCCNC(=N)N)C(=O)N[C@@H](CC(C)C)C(=O)N[C@@H](CC(C)C)C(=O)N[C@@H](CCCNC(=N)N)C(=O)N[C@@H](CCCCN)C(=O)NCC(N)=O` [Peptide Z4] (H-AIP[Ala(azulen-1-yl)]IWIWRLLRKG-NH2), in the series with P. aeruginosa PA-01 [1], the “MBC, P. aeruginosa” value is on record as more than 15 µM and the “MIC, P. aeruginosa” value was more than 15 µM. In addition, in the series on S. aureus ATCC 35556 [2], the “MBC, S. aureus” value is 7.50 µM (≈ 13.6 µg/mL) and the “MIC, S. aureus” value was 7.50 µM (≈ 13.6 µg/mL). Also, in the series on A. baumannii ATCC 19609 [3], the “MBC, A. baumannii” value stood at 7.50 µM (≈ 13.6 µg/mL) and the “MIC, A. baumannii” value stood at 7.50 µM (≈ 13.6 µg/mL).

With `CC[C@H](C)[C@H](NC(=O)[C@H](Cc1ccc2cccccc1-2)NC(=O)[C@@H](NC(=O)[C@H](Cc1c[nH]c2ccccc12)NC(=O)[C@@H]1CCCN1C(=O)[C@@H](NC(=O)[C@H](C)N)[C@@H](C)CC)[C@@H](C)CC)C(=O)N[C@@H](Cc1c[nH]c2ccccc12)C(=O)N[C@@H](CCCNC(=N)N)C(=O)N[C@@H](CC(C)C)C(=O)N[C@@H](CC(C)C)C(=O)N[C@@H](CCCNC(=N)N)C(=O)N[C@@H](CCCCN)C(=O)NCC(N)=O` [Peptide Z6] (H-AIPWI[Ala(azulen-1-yl)]IWRLLRKG-NH2), in the series on P. aeruginosa PA-01 [1], the “MBC, P. aeruginosa” value is recorded as more than 15 µM and the “MIC, P. aeruginosa” value is more than 15 µM. Also, in the series on S. aureus ATCC 35556 [2], the “MBC, S. aureus” value is reported as 1.88 µM (≈ 3.42 µg/mL) and the “MIC, S. aureus” value is 1.88 µM (≈ 3.42 µg/mL). Besides, in the series with A. baumannii ATCC 19609 [3], the “MBC, A. baumannii” value is reported as 7.50 µM (≈ 13.6 µg/mL) and the “MIC, A. baumannii” value was found to be 3.75 µM (≈ 6.82 µg/mL).

On to `CC[C@H](C)[C@H](NC(=O)[C@H](Cc1c[nH]c2ccccc12)NC(=O)[C@@H](NC(=O)[C@H](Cc1c[nH]c2ccccc12)NC(=O)[C@@H]1CCCN1C(=O)[C@@H](NC(=O)[C@H](C)N)[C@@H](C)CC)[C@@H](C)CC)C(=O)N[C@@H](Cc1ccc2cccccc1-2)C(=O)N[C@@H](CCCNC(=N)N)C(=O)N[C@@H](CC(C)C)C(=O)N[C@@H](CC(C)C)C(=O)N[C@@H](CCCNC(=N)N)C(=O)N[C@@H](CCCCN)C(=O)NCC(N)=O` [Peptide Z8] (H-AIPWIWI[Ala(azulen-1-yl)]RLLRKG-NH2), for which, in the series on P. aeruginosa PA-01 [1], the “MBC, P. aeruginosa” value was more than 15 µM and the “MIC, P. aeruginosa” value was more than 15 µM. Besides, in the series with S. aureus ATCC 35556 [2], the “MBC, S. aureus” value is 15.00 µM (≈ 27.3 µg/mL) and the “MIC, S. aureus” value is on record as 7.50 µM (≈ 13.6 µg/mL). Also, in the series with A. baumannii ATCC 19609 [3], the “MBC, A. baumannii” value came to 7.50 µM (≈ 13.6 µg/mL) and the “MIC, A. baumannii” value came out at 7.50 µM (≈ 13.6 µg/mL).

Turning to AIPWIWIWRLLRKG, the fragment found result in the series with trypsin is “AIPWIWIWR; also recorded: AIPWIWIWRLLR”.

Consider H-AIPWIWIWRLLRKG-NH2 [WWW], for which, in the series with S. aureus ATCC 35556 [4], the “MBC, S. aureus” value is listed as 3.75 µM and the “MIC, S. aureus” value was 3.75 µM. Moreover, in the series with E. coli D31, the “MBC, E. coli” value is recorded as 7.50 µM and the “MIC, E. coli” value was 7.50 µM. Further, in the series with P. aeruginosa PA-01 [5], the “MBC, P. aeruginosa” value is on record as more than 15 µM and the “MIC, P. aeruginosa” value is recorded as 15.00 µM. Also, in the series on A. baumannii ATCC 19609 [6], the “MBC, A. baumannii” value is on record as 3.75 µM and the “MIC, A. baumannii” value is reported as 3.75 µM.

(Values after paper PMC8001250 (Biomolecules, 2021).)
